What was measured:
[1] = test system: Mycobacterium tuberculosis Erdman (autoluminescent); assay: GRinf, maximum normalised growth rate inhibition (three-drug combination) (unitless (-1 to 1)); higher = less effect (negative = killing)
Procedure: (§1)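 DiaMOND equipotent three-drug combination dose responses (10 doses, 1.5- or 2-fold spacing, centred on IC90) against autoluminescent M. tuberculosis Erdman in 8 in vitro models. Read-out is OD600, or luminescence for the intracellular and dormancy models, normalised to untreated wells. Hill-fit Einf, AUC25 and GRinf are potency metrics; FIC50 and FIC90 are total Loewe fractional inhibitory concentrations as log2 (negative = synergy).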

[2] = test system: Mycobacterium tuberculosis Erdman (autoluminescent); assay: Einf, fitted maximum growth inhibition of three-drug combination (fraction); higher = stronger maximal inhibition
Procedure: as §1

[3] = test system: Mycobacterium tuberculosis Erdman (autoluminescent); assay: total FIC90 (Loewe) at 90% inhibition, three-drug combination (log2); higher = more antagonistic
Procedure: as §1

[4] = test system: Mycobacterium tuberculosis Erdman (autoluminescent); assay: AUC25, normalised area under dose response up to IC25 (three-drug combination) (fraction (0-1)); higher = more potent at low dose
Procedure: as §1

[5] = test system: Mycobacterium tuberculosis Erdman (autoluminescent); assay: total FIC50 (Loewe) at 50% inhibition, three-drug combination (log2); higher = more antagonistic
Procedure: as §1

[6] = in vitro model: acidic pH 5.7, time point: constant (~7 days, model-specific)
[7] = in vitro model: acidic pH 5.7, time point: terminal (~4-5 doublings, model-specific)
[8] = in vitro model: butyrate, time point: constant (~7 days, model-specific)
[9] = in vitro model: butyrate, time point: terminal (~4-5 doublings, model-specific)
[10] = in vitro model: cholesterol 0.05 mM, time point: constant (~7 days, model-specific)
[11] = in vitro model: cholesterol 0.05 mM, time point: terminal (~4-5 doublings, model-specific)
[12] = in vitro model: cholesterol-high 0.2 mM, time point: constant (~7 days, model-specific)
[13] = in vitro model: cholesterol-high 0.2 mM, time point: terminal (~4-5 doublings, model-specific)
[14] = in vitro model: dormancy (butyrate + nitrate, low O2), time point: constant (~7 days, model-specific)
[15] = in vitro model: dormancy (butyrate + nitrate, low O2), time point: terminal (~4-5 doublings, model-specific)
[16] = in vitro model: intracellular J774, time point: constant = terminal
[17] = in vitro model: standard 7H9 glycerol, time point: constant = terminal
[18] = in vitro model: valerate, time point: constant (~7 days, model-specific)
[19] = in vitro model: valerate, time point: terminal (~4-5 doublings, model-specific)

SMILES: CC(C)/N=c1\cc2n(-c3ccc(Cl)cc3)c3ccccc3nc-2cc1Nc1ccc(Cl)cc1 [clofazimine] + NNC(=O)c1ccncc1 [isoniazid] + CO[C@H]1/C=C/O[C@@]2(C)Oc3c(C)c(O)c4c(O)c(c(/C=N/N5CCN(C)CC5)c(O)c4c3C2=O)NC(=O)/C(C)=C\C=C\[C@H](C)[C@H](O)[C@@H](C)[C@@H](O)[C@@H](C)[C@H](OC(C)=O)[C@@H]1C [rifampicin]
- GRinf [1, 6]: -0.00905
- GRinf [1, 7]: -0.102
- GRinf [1, 8]: -0.146
- GRinf [1, 9]: -0.104
- GRinf [1, 10]: 0.064
- GRinf [1, 11]: 0.0504
- GRinf [1, 12]: -0.205
- GRinf [1, 13]: -0.68
- GRinf [1, 14]: 0.253
- GRinf [1, 15]: -0.19
- GRinf [1, 16]: -0.28
- GRinf [1, 17]: -0.018
- GRinf [1, 18]: -0.116
- GRinf [1, 19]: 0.0831
- Einf [2, 6]: 0.859
- Einf [2, 7]: 0.977
- Einf [2, 8]: 0.958
- Einf [2, 9]: 0.978
- Einf [2, 10]: 0.662
- Einf [2, 11]: 0.896
- Einf [2, 12]: 0.891
- Einf [2, 13]: 0.996
- Einf [2, 14]: 0.876
- Einf [2, 15]: 0.988
- Einf [2, 16]: 0.983
- Einf [2, 17]: 0.945
- Einf [2, 18]: 0.866
- Einf [2, 19]: 0.918
- total FIC90 [3, 7]: 0.223
- total FIC90 [3, 8]: 0.605
- total FIC90 [3, 9]: 0.248
- total FIC90 [3, 11]: -0.29
- total FIC90 [3, 13]: 0.197
- total FIC90 [3, 14]: -0.596
- total FIC90 [3, 15]: 0.28
- total FIC90 [3, 16]: 0.112
- total FIC90 [3, 17]: 0.0305
- total FIC90 [3, 19]: 0.147
- AUC25 [4, 6]: 0.0827
- AUC25 [4, 7]: 0.0711
- AUC25 [4, 8]: 0.107
- AUC25 [4, 9]: 0.082
- AUC25 [4, 10]: 0.102
- AUC25 [4, 11]: 0.0787
- AUC25 [4, 12]: 0.0653
- AUC25 [4, 13]: 0.0563
- AUC25 [4, 14]: 0.0885
- AUC25 [4, 15]: 0.0839
- AUC25 [4, 17]: 0.112
- AUC25 [4, 18]: 0.112
- AUC25 [4, 19]: 0.0604
- total FIC50 [5, 6]: 0.524
- total FIC50 [5, 7]: 0.542
- total FIC50 [5, 8]: 0.388
- total FIC50 [5, 9]: 0.318
- total FIC50 [5, 10]: 0.74
- total FIC50 [5, 11]: 1.25
- total FIC50 [5, 12]: 0.286
- total FIC50 [5, 13]: 0.929
- total FIC50 [5, 14]: -0.0155
- total FIC50 [5, 15]: -0.403
- total FIC50 [5, 17]: -0.19
- total FIC50 [5, 18]: 0.565
- total FIC50 [5, 19]: 0.286

SMILES: CC(=O)NC[C@H]1CN(c2ccc(N3CCOCC3)c(F)c2)C(=O)O1 [linezolid] + COc1c(N2C[C@@H]3CCCN[C@@H]3C2)c(F)cc2c(=O)c(C(=O)O)cn(C3CC3)c12 [moxifloxacin] + O=[N+]([O-])c1cn2c(n1)OC[C@@H](OCc1ccc(OC(F)(F)F)cc1)C2 [pretomanid]
- GRinf [1, 6]: -0.748
- GRinf [1, 7]: -0.404
- GRinf [1, 8]: 0.0148
- GRinf [1, 9]: 0.0166
- GRinf [1, 10]: -0.183
- GRinf [1, 11]: -0.206
- GRinf [1, 12]: -0.45
- GRinf [1, 13]: -0.722
- GRinf [1, 14]: 0.219
- GRinf [1, 15]: -0.165
- GRinf [1, 16]: -0.659
- GRinf [1, 17]: -0.151
- GRinf [1, 18]: -0.229
- GRinf [1, 19]: -0.0505
- Einf [2, 6]: 0.883
- Einf [2, 7]: 0.945
- Einf [2, 8]: 0.916
- Einf [2, 9]: 0.953
- Einf [2, 10]: 0.692
- Einf [2, 11]: 0.908
- Einf [2, 12]: 0.923
- Einf [2, 13]: 0.989
- Einf [2, 14]: 0.879
- Einf [2, 15]: 0.979
- Einf [2, 16]: 0.954
- Einf [2, 17]: 0.962
- Einf [2, 18]: 0.861
- Einf [2, 19]: 0.918
- total FIC90 [3, 7]: 0.694
- total FIC90 [3, 8]: 0.801
- total FIC90 [3, 9]: 0.736
- total FIC90 [3, 11]: 0.307
- total FIC90 [3, 12]: 1.91
- total FIC90 [3, 13]: 0.839
- total FIC90 [3, 14]: 0.456
- total FIC90 [3, 15]: 0.983
- total FIC90 [3, 16]: 1.38
- total FIC90 [3, 17]: 0.766
- total FIC90 [3, 19]: 0.791
- AUC25 [4, 6]: 0.113
- AUC25 [4, 7]: 0.0579
- AUC25 [4, 8]: 0.0971
- AUC25 [4, 9]: 0.0695
- AUC25 [4, 10]: 0.14
- AUC25 [4, 11]: 0.134
- AUC25 [4, 12]: 0.121
- AUC25 [4, 13]: 0.117
- AUC25 [4, 14]: 0.0437
- AUC25 [4, 15]: 0.0489
- AUC25 [4, 17]: 0.0706
- AUC25 [4, 18]: 0.138
- AUC25 [4, 19]: 0.0994
- total FIC50 [5, 6]: 0.776
- total FIC50 [5, 7]: 1.08
- total FIC50 [5, 8]: 0.594
- total FIC50 [5, 9]: 0.499
- total FIC50 [5, 10]: 0.0017
- total FIC50 [5, 11]: 0.534
- total FIC50 [5, 12]: 0.187
- total FIC50 [5, 13]: 0.117
- total FIC50 [5, 14]: 0.988
- total FIC50 [5, 15]: 1.01
- total FIC50 [5, 17]: 0.466
- total FIC50 [5, 18]: -0.643
- total FIC50 [5, 19]: -0.495

Source: the supplement of paper PMC8617591
